Experimental data from ChEMBL document CHEMBL5352446, “Synthesis and biological evaluation of a novel c-Myc inhibitor against colorectal cancer via blocking c-Myc/Max heterodimerization and disturbing its DNA binding” (Eur J Med Chem, 2022).

How the values were obtained:
[1] = test system: HCT-116; assay: cells; conditions: Homo sapiens, HCT-116, 72 h
Description: Antiproliferative activity against human HCT-116 cells incubated for 72 hrs by MTT assay

[2] = test system: HCT-15; assay: Antiproliferative activity against human HCT-15 cells incubated for 72 hrs by MTT assay; format: functional, cell-based; conditions: HCT-15, 72 h
[3] = test system: HT-29; assay: cells; conditions: Homo sapiens, HT-29, 72 h
Description: Antiproliferative activity against human HT-29 cells incubated for 72 hrs by MTT assay

[4] = test system: HCT-8; assay: Antiproliferative activity against human HCT-8 cells incubated for 72 hrs by MTT assay; format: functional, cell-based; conditions: HCT-8, 72 h
[5] = Inhibition of c-Myc/Max binding to DNA (unknown origin) by fluorescence polarization assay; design: species or system Homo sapiens
[6] = biological target: c-Myc/c-Max (Homo sapiens, UniProt P01106+P61244); assay: Inhibition of c-Myc to Max protein dimerization (unknown origin) by electrophoretic mobility shift assay
[7] = species: Homo sapiens; assay: Inhibition of human Myc (353 to 439 residues)/Max(S) (151 residues) expressed in Escherichia coli BL21(DE3) binding to biotinylated double-stranded DNA oligonucleotide 5'-CACCCGGTCACTGGCCTACAC-3' (unknown origin) preincubated for 90 mins followed by oligonucleotide addition for 25 mins by EMSA; conditions: time 115.0 min
[8] = test system: HT-29; assay: Antitumor activity against human HT-29 cells xenografted in BALB/c mouse assessed as tumor growth inhibition at 40 mg/kg, ip administered daily for 3 weeks by caliper method; format: functional; conditions: HT-29, 504 h, read-out: TGI
[9] = test system: HT-29; assay: Inhibition of colony formation in human HT-29 cells measured after 14 days by crystal violet staining based assay; format: functional, cell-based; conditions: dose 0.25-2 µM, time 14.0 day
[10] = test system: HT-29; assay: Downregulation of c-Myc expression in human […] cells incubated for 24 hrs by Western blot analysis; format: functional, cell-based; conditions: dose 2.5-10 µM
[11] = Toxicity in BALB/c mouse xenografted with human HT-29 cells assessed as heart damage at 40 mg/kg, ip measured after 21 days by H and E staining based assay; format: organism-based; conditions: in vivo, 504 h, time 21 day
[12] = Toxicity in BALB/c mouse xenografted with human HT-29 cells assessed as kidney damage at 40 mg/kg, ip measured after 21 days by H and E staining based assay; format: organism-based; conditions: in vivo, 504 h, time 21 day
[13] = Toxicity in BALB/c mouse xenografted with human HT-29 cells assessed as body weight loss at 40 mg/kg, ip measured after 12 days; format: organism-based; conditions: in vivo, 288 h, time 12 day
[14] = Toxicity in BALB/c mouse xenografted with human HT-29 cells assessed as lung damage at 40 mg/kg, ip measured after 21 days by H and E staining based assay; format: organism-based; conditions: in vivo, 504 h, time 21 day
[15] = Toxicity in BALB/c mouse xenografted with human HT-29 cells assessed as liver damage at 40 mg/kg, ip measured after 21 days by H and E staining based assay; format: organism-based; conditions: in vivo, 504 h, time 21 day

Chain of c-Myc/c-Max (P01106 whole entry, the tested form may be a part): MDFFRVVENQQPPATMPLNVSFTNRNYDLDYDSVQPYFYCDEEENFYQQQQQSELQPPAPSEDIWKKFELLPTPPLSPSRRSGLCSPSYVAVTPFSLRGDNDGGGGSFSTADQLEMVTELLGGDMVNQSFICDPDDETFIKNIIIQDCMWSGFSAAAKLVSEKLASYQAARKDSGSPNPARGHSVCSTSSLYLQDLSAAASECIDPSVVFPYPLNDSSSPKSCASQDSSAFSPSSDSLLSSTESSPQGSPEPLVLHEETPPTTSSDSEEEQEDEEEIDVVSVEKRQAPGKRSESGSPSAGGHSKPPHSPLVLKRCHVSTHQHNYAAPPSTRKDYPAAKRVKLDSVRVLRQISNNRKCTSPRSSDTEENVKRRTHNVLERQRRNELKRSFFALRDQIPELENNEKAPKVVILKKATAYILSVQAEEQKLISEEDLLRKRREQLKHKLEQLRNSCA
Chain of c-Myc/c-Max (P61244 whole entry, the tested form may be a part): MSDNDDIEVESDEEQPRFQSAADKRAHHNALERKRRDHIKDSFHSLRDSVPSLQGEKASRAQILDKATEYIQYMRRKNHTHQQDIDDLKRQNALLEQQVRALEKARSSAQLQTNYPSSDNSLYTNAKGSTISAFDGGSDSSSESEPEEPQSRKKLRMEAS

| SMILES | IC50 [1] [µM] | IC50 [2] [µM] | IC50 [3] [µM] | IC50 [4] [µM] | other results |
| --- | --- | --- | --- | --- | --- |
| COc1cc(Oc2ccc(Nc3ccc(CCO)cc3)cc2)cc(OC)c1CNCCc1ccc(C(F)(F)F)cc1 | 2.05 | 3.21 | 0.86 | 3.58 |  |
| COc1cc(Oc2ccc(Nc3ccccc3)cc2)cc(OC)c1CNCCc1ccc(C)cc1 | 4.01 | 5.88 | 2.83 | 10.2 |  |
| COc1cc(Oc2ccc(Nc3ccc(C(=O)C(F)(F)F)cc3)cc2)cc(OC)c1CNCCc1ccc(C(F)(F)F)cc1 | 2.43 | 1.89 | 1.93 | 7.86 |  |
| COc1cc(Oc2ccc(Nc3ccccc3)cc2)cc(OC)c1CNCCc1ccccn1 | 2.76 | 6.87 | 2.94 | 11.2 |  |
| C=C(OCC)c1cnn(-c2ccccc2)c1NC(=O)c1cc2nc(-c3ccco3)cc(C(F)(F)Cl)n2n1 |  |  |  |  | IC50 [5]: 40 µM |
| COc1cc(Oc2ccc(Nc3ccc(C(F)(F)F)c(C(F)(F)F)c3)cc2)cc(OC)c1CNCCc1ccc(C(F)(F)F)cc1 | 1.64 | 2.12 | 2.35 | 6.98 |  |
| COc1cc(Oc2ccc(Nc3ccc(Br)cc3)cc2)cc(OC)c1CNCCc1ccc(C(F)(F)F)cc1 | 3.54 | 3.85 | 1.31 | 6.98 |  |
| COc1cc(Oc2ccc(Nc3ccc(C(C)(C)C)cc3)cc2)cc(OC)c1CNCCc1ccc(C(F)(F)F)cc1 | 6.48 | 5.76 | 2.18 | 9.76 |  |
| COc1cc(Oc2ccc(-c3ccccc3)cc2)cc(OC)c1CNCCc1ccc(C(F)(F)F)cc1 | 2.8 | 1.55 | 1.41 | 6.98 |  |
| COc1cc(Oc2ccc(Nc3ccc(SC)cc3)cc2)cc(OC)c1CNCCc1ccc(C(F)(F)F)cc1 | 3.79 | 2.13 | 1.72 | 8.36 |  |
| COc1cc(Oc2ccc(-c3ccc(F)cc3)cc2)cc(OC)c1CNCCc1ccc(C(F)(F)F)cc1 | 3.77 | 4.23 | 1.95 | 7.89 |  |
| COc1cc(Oc2ccc(Nc3ccccc3)cc2)cc(OC)c1CNCCc1ccc(Br)cc1 | 2.96 | 6.97 | 2.38 | 7.13 |  |
| COc1cc(Oc2ccc(Nc3ccccc3)cc2)cc(OC)c1CNCCc1ccc(F)cc1 | 3.13 | 5.64 | 2.79 | 6.32 |  |
| COc1cc(Oc2ccc(-c3ccc(C(F)(F)F)cc3)cc2)cc(OC)c1CNCCc1ccc(C(F)(F)F)cc1 | 4.7 | 4.89 | 2.51 | 8.76 |  |
| COc1cc(Oc2ccc(Nc3ccc(-c4cnc5ccccc5c4)cc3)cc2)cc(OC)c1CNCCc1ccc(C(F)(F)F)cc1 | 3.12 | 1.58 | 1.99 | 6.77 |  |
| COc1cc(Oc2ccc(Nc3ccc(Cl)cc3)cc2)cc(OC)c1CNCCc1ccc(C(F)(F)F)cc1 | 3.53 | 5.31 | 1.29 | 4.1 |  |
| O=C(O)c1ccc(Nc2ccc([N+](=O)[O-])c3nonc23)cc1 |  |  |  |  | IC50 [6]: 33 µM |
| COc1ccc(Nc2ccc(Oc3cc(OC)c(CNCCc4ccc(C(F)(F)F)cc4)c(OC)c3)cc2)cc1 | 1.91 | 6.37 | 1.41 | 4.22 |  |
| COc1cc(Oc2ccc(Nc3ccc(Cc4ccccc4)cc3)cc2)cc(OC)c1CNCCc1ccc(C(F)(F)F)cc1 | 5.21 | 4.48 | 1.13 | 6.57 |  |
| COc1cc(Oc2ccc(Nc3ccc(CO)cc3)cc2)cc(OC)c1CNCCc1ccc(C(F)(F)F)cc1 | 3.22 | 3.33 | 1.03 | 3.23 |  |
| COc1ccc(Nc2ccc(Oc3cc(OC)c(CNCCc4ccc(C(F)(F)F)cc4)c(OC)c3)cc2)cc1C | 5.25 | 7.09 | 2.34 | 6.97 |  |
| COc1cc(Oc2ccc(Nc3ccccc3)cc2)cc(OC)c1CNCCc1ccc(N)cc1 | 2.87 | 5.65 | 2.65 | 6.21 |  |
| COc1cc(Oc2ccc(Nc3ccccc3)cc2)cc(OC)c1CNCCc1ccc(C(F)(F)F)cc1 | 1.75 | 2.78 | 1.05 | 4.23 |  |

| SMILES | IC50 [1] [µM] | IC50 [2] [µM] | IC50 [3] [µM] | IC50 [4] [µM] | other results |
| --- | --- | --- | --- | --- | --- |
| COc1cc(Oc2ccc(Nc3ccc(C)cc3)cc2)cc(OC)c1CNCCc1ccc(C(F)(F)F)cc1 | 2.13 | 5.61 | 1.11 | 7.13 |  |
| CCCc1ccc(Nc2ccc(Oc3cc(OC)c(CNCCc4ccc(C(F)(F)F)cc4)c(OC)c3)cc2)cc1 | 3.23 | 5.62 | 1.6 | 4.1 |  |
| COc1cc(Oc2ccc(Nc3ccc(F)cc3)cc2)cc(OC)c1CNCCc1ccc(C(F)(F)F)cc1 | 3.4 | 6.23 | 1.47 | 5.32 |  |
| COc1ccc(Nc2ccc(Oc3cc(OC)c(CNCCc4ccc(C(F)(F)F)cc4)c(OC)c3)cc2)cc1OC | 1.35 | 3.35 | 0.92 | 3.13 |  |
| COc1cc(Oc2ccc(-c3ccc(Br)cc3)cc2)cc(OC)c1CNCCc1ccc(C(F)(F)F)cc1 | 2.71 | 2.23 | 2.57 | 8.75 |  |
| COc1cc(Oc2ccc(Nc3ccc(C(F)(F)F)cc3)cc2)cc(OC)c1CNCCc1ccc(C(F)(F)F)cc1 | 6.46 | 3.24 | 1.31 | 8.49 |  |
| COc1cc(Oc2ccc(Nc3ccccc3)cc2)cc(OC)c1CNCCc1cccs1 | 3.85 | 7.56 | 2.65 | 10.8 |  |
| COc1cc(Oc2ccc(Nc3ccc(-c4ccccc4)cc3)cc2)cc(OC)c1CNCCc1ccc(C(F)(F)F)cc1 | 3.85 | 3.41 | 1.7 | 5.88 |  |
| COc1ccc(CCNCc2c(OC)cc(Oc3ccc(Nc4ccccc4)cc3)cc2OC)cc1OC | 2.62 | 3.54 | 1.54 | 6.32 |  |
| COc1cc(Oc2ccc(Nc3ccccc3)cc2)cc(OC)c1CNCCc1ccc(O)cc1 | 3.46 | 4.54 | 2.75 | 6.78 |  |
| CCc1ccc(Nc2ccc(Oc3cc(OC)c(CNCCc4ccc(C(F)(F)F)cc4)c(OC)c3)cc2)cc1 | 3.87 | 5.54 | 1.51 | 4.58 |  |
| COc1cc(Oc2ccc(Nc3ccc(C#N)cc3)cc2)cc(OC)c1CNCCc1ccc(C(F)(F)F)cc1 | 2.38 | 2.43 | 0.9 | 6.75 |  |
| COc1cc(Oc2ccc(Nc3ccc(C(F)(F)F)c(F)c3)cc2)cc(OC)c1CNCCc1ccc(C(F)(F)F)cc1 | 1.74 | 2.34 | 1.42 | 8.63 |  |
| COc1cc(Oc2ccc(Nc3ccccc3)cc2)cc(OC)c1CNCCc1ccc(Cl)cc1 | 4.98 | 6.64 | 2.44 | 6.13 |  |
| COc1cc(Oc2ccc(-c3ccc(Cl)cc3)cc2)cc(OC)c1CNCCc1ccc(C(F)(F)F)cc1 | 5.05 | 3.23 | 2.06 | 6.09 |  |
| COc1ccc(CCNCc2c(OC)cc(Oc3ccc(Nc4ccccc4)cc3)cc2OC)cc1 | 1.95 | 3.15 | 1.36 | 4.81 | inhibition [7]: Dose-Dependent Effect; inhibition in vivo at 40 mg/kg [8]: 55.8%; inhibition [9]: Dose-Dependent Effect; Activity [10]: Dose-Dependent Effect |
| CCOc1ccc(Nc2ccc(Oc3cc(OC)c(CNCCc4ccc(C(F)(F)F)cc4)c(OC)c3)cc2)cc1 | 3.08 | 5.3 | 0.86 | 5.32 |  |
| COC(=O)c1ccc(Nc2ccc(Oc3cc(OC)c(CNCCc4ccc(C(F)(F)F)cc4)c(OC)c3)cc2)cc1 | 5.98 | 4.35 | 1.28 | 7.34 |  |
| COc1ccc(-c2ccc(Oc3cc(OC)c(CNCCc4ccc(C(F)(F)F)cc4)c(OC)c3)cc2)cc1 | 2.62 | 2.34 | 2.19 | 6.45 |  |
| COc1cc(Oc2ccc(-c3ccc(C)cc3)cc2)cc(OC)c1CNCCc1ccc(C(F)(F)F)cc1 | 2.41 | 2.32 | 1.35 | 8.95 |  |
| O=c1[nH]cc(F)c(=O)[nH]1 [FLUOROURACIL] | 6.5 | 8.23 | 9.19 | > 20 | Activity [11]: Toxic; Activity [12]: Toxic; Activity [13]: Toxic; Activity [14]: Toxic; Activity [15]: Toxic; inhibition in vivo at 40 mg/kg [8]: 50.2% |
| CCCCc1ccc(Nc2ccc(Oc3cc(OC)c(CNCCc4ccc(C(F)(F)F)cc4)c(OC)c3)cc2)cc1 | 3.1 | 4.86 | 1.75 | 4.98 |  |
